In general, inhibition refers to the relative decrease from the control value, in per cent.

We go through 27 compounds from ChEMBL document CHEMBL2074178, “Passive permeability and P-glycoprotein-mediated efflux differentiate central nervous system (CNS) and non-CNS marketed drugs” (J Pharmacol Exp Ther, 2002).

Data set [1] addresses T1, MDR1 (P-glycoprotein, ABCB1) (Homo sapiens, UniProt P08183). Description: TP_TRANSPORTER: increase in Calcein-AM intracellular accumulation (Calcein-AM: ? uM, Amitriptyline: 100 uM) in MDR1-expressing MDCKII cells. It counts as functional, cell-based, MDCK-II. The settings on record: dog, probe Calcein-AM.
In data set [2] the target is T2, ATP-dependent translocase ABCB1 (Homo sapiens, UniProt P08183). As to the kind of experiment: TP_TRANSPORTER: transepithelial transport (basal to apical) in MDR1-expressing MDCKII cells. It counts as functional, cell-based. The settings on record: dog, mdck-ii.
Data set [3] deals with T2, ATP-dependent translocase ABCB1. Description: TP_TRANSPORTER: increase in Calcein-AM intracellular accumulation (Calcein-AM: ? uM, Carbamazepine: 100 uM) in MDR1-expressing MDCKII cells. The class given is functional, cell-based. As to conditions: dog, mdck-ii.
Data set [4] has the same target. As to the kind of experiment: TP_TRANSPORTER: increase in Calcein-AM intracellular accumulation (Calcein-AM: ? uM, Flumazenil: 100 uM) in MDR1-expressing MDCKII cells. It counts as functional, cell-based. The settings on record: dog, mdck-ii.
The target of data set [5] is T1, MDR1 (P-glycoprotein, ABCB1). Description: TP_TRANSPORTER: increase in Calcein-AM intracellular accumulation (Calcein-AM: ? uM, Desipramine: 100 uM) in MDR1-expressing MDCKII cells. It counts as functional, cell-based, MDCK-II. As to conditions: dog, probe Calcein-AM.
In data set [6] the target is T2, ATP-dependent translocase ABCB1. Description: TP_TRANSPORTER: increase in Calcein-AM intracellular accumulation (Calcein-AM: ? uM, Imipramine: 100 uM) in MDR1-expressing MDCKII cells. The settings on record: dog, mdck-ii. The class given is functional, cell-based.
Data set [7] addresses T1, MDR1 (P-glycoprotein, ABCB1). As to the kind of experiment: TP_TRANSPORTER: increase in Calcein-AM intracellular accumulation (Calcein-AM: ? uM, Buspirone: 100 uM) in MDR1-expressing MDCKII cells. It counts as functional, cell-based, MDCK-II. The settings on record: dog, probe Calcein-AM.
Data set [8] shares this target. Description: TP_TRANSPORTER: increase in Calcein-AM intracellular accumulation (Calcein-AM: ? uM, Maprotiline: 100 uM) in MDR1-expressing MDCKII cells. As to conditions: dog, probe Calcein-AM.
The target in data set [9] is T2, ATP-dependent translocase ABCB1. Description: TP_TRANSPORTER: increase in Calcein-AM intracellular accumulation (Calcein-AM: ? uM, Nordazepam: 100 uM) in MDR1-expressing MDCKII cells. The class given is functional, cell-based. The settings on record: dog, mdck-ii.
For data set [10] the target is unchanged. As to the kind of experiment: TP_TRANSPORTER: increase in Calcein-AM intracellular accumulation (Calcein-AM: ? uM, Ketamine: 100 uM) in MDR1-expressing MDCKII cells. The class given is functional, cell-based. The settings on record: dog, mdck-ii.
In data set [11] the target is T1, MDR1 (P-glycoprotein, ABCB1). As to the kind of experiment: TP_TRANSPORTER: increase in Calcein-AM intracellular accumulation (Calcein-AM: ? uM, Chlorprothixene: 100 uM) in MDR1-expressing MDCKII cells. The class given is functional, cell-based, MDCK-II. As to conditions: dog, probe Calcein-AM.
Data set [12] shares this target. As to the kind of experiment: TP_TRANSPORTER: increase in Calcein-AM intracellular accumulation (Calcein-AM: ? uM, Metergoline: 100 uM) in MDR1-expressing MDCKII cells. The settings on record: dog, probe Calcein-AM. The class given is functional, cell-based, MDCK-II.
Data set [13] concerns the target T2, ATP-dependent translocase ABCB1. Description: TP_TRANSPORTER: increase in Calcein-AM intracellular accumulation (Calcein-AM: ? uM, Naltrexone: 100 uM) in MDR1-expressing MDCKII cells. The class given is functional, cell-based. The settings on record: dog, mdck-ii.
The target is the same in data set [14]. As to the kind of experiment: TP_TRANSPORTER: increase in Calcein-AM intracellular accumulation (Calcein-AM: ? uM, Nitrazepam: 100 uM) in MDR1-expressing MDCKII cells. The class given is functional, cell-based. As to conditions: dog, mdck-ii.
Data set [15] has as its target T1, MDR1 (P-glycoprotein, ABCB1). As to the kind of experiment: TP_TRANSPORTER: increase in Calcein-AM intracellular accumulation (Calcein-AM: ? uM, Clomipramine: 100 uM) in MDR1-expressing MDCKII cells. The settings on record: dog, probe Calcein-AM. The class given is functional, cell-based, MDCK-II.
Data set [16] addresses T2, ATP-dependent translocase ABCB1. As to the kind of experiment: TP_TRANSPORTER: increase in Calcein-AM intracellular accumulation (Calcein-AM: ? uM, Meprobamate: 100 uM) in MDR1-expressing MDCKII cells. The class given is functional, cell-based. As to conditions: dog, mdck-ii.
In data set [17] the target is T1, MDR1 (P-glycoprotein, ABCB1). Description: TP_TRANSPORTER: increase in Calcein-AM intracellular accumulation (Calcein-AM: ? uM, Doxepin: 100 uM) in MDR1-expressing MDCKII cells. The class given is functional, cell-based, MDCK-II. The settings on record: dog, probe Calcein-AM.
In data set [18] the target is T2, ATP-dependent translocase ABCB1. As to the kind of experiment: TP_TRANSPORTER: increase in Calcein-AM intracellular accumulation (Calcein-AM: ? uM, Zimeldine: 100 uM) in MDR1-expressing MDCKII cells. It counts as functional, cell-based. As to conditions: dog, mdck-ii.
The target is the same in data set [19]. As to the kind of experiment: TP_TRANSPORTER: increase in Calcein-AM intracellular accumulation (Calcein-AM: ? uM, Sumatriptan: 100 uM) in MDR1-expressing MDCKII cells. It counts as functional, cell-based. As to conditions: dog, mdck-ii.
In data set [20] the target is T1, MDR1 (P-glycoprotein, ABCB1). As to the kind of experiment: TP_TRANSPORTER: increase in Calcein-AM intracellular accumulation (Calcein-AM: ? uM, Haloperidol: 100 uM) in MDR1-expressing MDCKII cells. It counts as functional, cell-based, MDCK-II. The settings on record: dog, probe Calcein-AM.
For data set [21] the target is unchanged. Description: TP_TRANSPORTER: increase in Calcein-AM intracellular accumulation (Calcein-AM: ? uM, […]: 100 uM) in MDR1-expressing MDCKII cells. The class given is functional, cell-based, MDCK-II. As to conditions: dog, probe Calcein-AM.
For data set [22] the target is unchanged. Description: TP_TRANSPORTER: increase in Calcein-AM intracellular accumulation (Calcein-AM: ? uM, Fluvoxamine: 100 uM) in MDR1-expressing MDCKII cells. It counts as functional, cell-based, MDCK-II. As to conditions: dog, probe Calcein-AM.
The target in data set [23] is T2, ATP-dependent translocase ABCB1. As to the kind of experiment: TP_TRANSPORTER: increase in Calcein-AM intracellular accumulation (Calcein-AM: ? uM, Selegiline: 100 uM) in MDR1-expressing MDCKII cells. It counts as functional, cell-based. The settings on record: dog, mdck-ii.
The target is the same in data set [24]. As to the kind of experiment: TP_TRANSPORTER: increase in Calcein-AM intracellular accumulation (Calcein-AM: ? uM, Biperiden: 100 uM) in MDR1-expressing MDCKII cells. It counts as functional, cell-based. As to conditions: dog, mdck-ii.

T1 sequence (P08183 whole entry): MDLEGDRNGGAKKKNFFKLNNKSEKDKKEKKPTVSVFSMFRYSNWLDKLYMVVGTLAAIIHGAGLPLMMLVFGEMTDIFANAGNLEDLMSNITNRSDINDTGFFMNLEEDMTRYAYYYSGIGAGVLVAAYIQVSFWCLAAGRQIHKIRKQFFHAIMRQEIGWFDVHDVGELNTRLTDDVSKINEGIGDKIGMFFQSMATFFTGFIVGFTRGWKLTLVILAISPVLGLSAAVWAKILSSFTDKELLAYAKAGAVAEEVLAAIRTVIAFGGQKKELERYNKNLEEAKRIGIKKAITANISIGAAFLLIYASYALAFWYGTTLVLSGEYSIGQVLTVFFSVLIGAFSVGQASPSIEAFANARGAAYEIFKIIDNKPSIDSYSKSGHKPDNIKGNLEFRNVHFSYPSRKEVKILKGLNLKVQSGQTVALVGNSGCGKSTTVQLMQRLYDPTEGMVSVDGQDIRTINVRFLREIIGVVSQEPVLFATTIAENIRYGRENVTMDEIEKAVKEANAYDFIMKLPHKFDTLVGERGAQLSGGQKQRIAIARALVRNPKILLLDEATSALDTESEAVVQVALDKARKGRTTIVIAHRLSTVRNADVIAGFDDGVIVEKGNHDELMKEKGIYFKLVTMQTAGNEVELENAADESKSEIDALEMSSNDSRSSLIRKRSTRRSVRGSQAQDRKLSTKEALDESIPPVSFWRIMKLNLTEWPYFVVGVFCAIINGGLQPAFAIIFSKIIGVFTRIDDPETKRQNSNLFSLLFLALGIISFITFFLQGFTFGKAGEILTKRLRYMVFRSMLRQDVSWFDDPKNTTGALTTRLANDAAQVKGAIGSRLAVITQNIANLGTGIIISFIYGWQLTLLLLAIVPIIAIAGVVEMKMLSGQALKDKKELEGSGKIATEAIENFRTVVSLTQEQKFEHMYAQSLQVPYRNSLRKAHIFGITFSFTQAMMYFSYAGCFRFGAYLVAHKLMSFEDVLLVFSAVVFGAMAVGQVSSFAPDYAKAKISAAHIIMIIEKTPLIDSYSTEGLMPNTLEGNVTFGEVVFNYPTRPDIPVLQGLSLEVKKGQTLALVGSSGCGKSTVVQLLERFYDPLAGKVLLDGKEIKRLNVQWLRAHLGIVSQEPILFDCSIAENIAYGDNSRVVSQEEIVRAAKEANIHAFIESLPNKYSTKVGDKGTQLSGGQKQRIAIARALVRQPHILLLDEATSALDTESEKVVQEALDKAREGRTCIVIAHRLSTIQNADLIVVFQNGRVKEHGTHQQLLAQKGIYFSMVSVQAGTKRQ
T2 sequence (P08183 whole entry): as above

On to `CN(C)CCC=C1c2ccccc2CCc2ccccc21` [AMITRIPTYLINE], for which the inhibition at 100 µM in data set [1] is 25.5%. Moreover, the Activity entry in data set [2] is “is not a substrate [-]”.

For the compound `NC(=O)N1c2ccccc2C=Cc2ccccc21` [CARBAMAZEPINE], the results for the Activity result in data set [3] and in data set [2] were “is not an inhibitor [-]” and “is not a substrate [-]”, respectively.

With `CCOC(=O)c1ncn2c1CN(C)C(=O)c1cc(F)ccc1-2` [FLUMAZENIL], the Activity entry in data set [4] is “is not an inhibitor [-]”; in [2], “is not a substrate [-]”. Consider `CNCCCN1c2ccccc2CCc2ccccc21` [DESIPRAMINE], for which the inhibition at 100 µM in data set [5] is 12.8%. Besides, the Activity entry in data set [2] was “is not a substrate [-]”. As for `CN(C)CCCN1c2ccccc2CCc2ccccc21` [IMIPRAMINE], the Activity entry in data set [6] was “is not an inhibitor [-]”; in data set [2] it was “is not a substrate [-]”. For `CC(C)C[C@H]1C(=O)N2CCC[C@H]2[C@]2(O)O[C@](NC(=O)[C@@H]3C=C4c5cccc6[nH]c(Br)c(c56)C[C@H]4N(C)C3)(C(C)C)C(=O)N12` [BROMOCRIPTINE], in data set [2], the Activity entry was “is not a substrate [-]”. For the compound `O=C1CC2(CCCC2)CC(=O)N1CCCCN1CCN(c2ncccn2)CC1` [BUSPIRONE], in [7], the inhibition at 100 µM was 24.1%. Also, the Activity result in data set [2] was “is not a substrate [-]”.

Take `CNCCCC12CCC(c3ccccc31)c1ccccc12` [MAPROTILINE]: the inhibition at 100 µM in [8] was 36.7%. Moreover, in data set [2], the Activity result was “is not a substrate [-]”. Regarding `O=C1CN=C(c2ccccc2)c2cc(Cl)ccc2N1` [NORDAZEPAM], the Activity entry in data set [9] is “is not an inhibitor [-]”; in data set [2], “is not a substrate [-]”.

Turning to `CNC1(c2ccccc2Cl)CCCCC1=O` (stereo not given) [KETAMINE], the Activity entry is “is not an inhibitor [-]” in data set [10] and “is not a substrate [-]” in [2]. For `C=CCN1CC[C@]23c4c5ccc(O)c4O[C@H]2C(=O)CC[C@@]3(O)[C@H]1C5` [NALOXONE], in data set [2], the Activity result was “is not a substrate [-]”. On the same count and under the same terms, with `Nc1c2c(nc3ccccc13)CCCC2` [TACRINE] the entry was “is not a substrate [-]”. Regarding `CN(C)CC/C=C1/c2ccccc2Sc2ccc(Cl)cc21` [CHLORPROTHIXENE], the inhibition at 100 µM in data set [11] is 57.5%. The Activity entry in [2] was “is not a substrate [-]”. On to `Cc1ncc2n1-c1ccc(Cl)cc1C(c1ccccc1F)=NC2` [MIDAZOLAM], for which, in [2], the Activity result is “is not a substrate [-]”. Regarding `CN1C[C@H](CNC(=O)OCc2ccccc2)C[C@@H]2c3cccc4c3c(cn4C)C[C@H]21` [METERGOLINE], in data set [12], the inhibition at 100 µM is 84.4%. The Activity result in data set [2] was “is not a substrate [-]”. With `O=C1CC[C@@]2(O)[C@H]3Cc4ccc(O)c5c4[C@@]2(CCN3CC2CC2)[C@H]1O5` [NALTREXONE], the figures for the Activity result in data set [13] and in [2] were “is not an inhibitor [-]” and “is not a substrate [-]”, respectively. In the case of `O=C1CN=C(c2ccccc2)c2cc([N+](=O)[O-])ccc2N1` [NITRAZEPAM], the Activity entry is “is not an inhibitor [-]” in data set [14] and “is not a substrate [-]” in data set [2]. As for `CN(C)CCCN1c2ccccc2CCc2ccc(Cl)cc21` [CLOMIPRAMINE], the inhibition at 100 µM in data set [15] is 48.2%. Further, the Activity entry in data set [2] was “is not a substrate [-]”. For `CCCC(C)(COC(N)=O)COC(N)=O` [MEPROBAMATE], the Activity result in data set [16] is “is not an inhibitor [-]”; in data set [2], “is not a substrate [-]”. For `CN(C)CCC=C1c2ccccc2COc2ccccc21` [DOXEPIN], the inhibition at 100 µM in data set [17] was 15.3%. Further, the Activity result in [2] was “is not a substrate [-]”. With `CN(C)C/C=C(/c1ccc(Br)cc1)c1cccnc1` [ZIMELDINE], the values for the Activity entry in data set [18] and in [2] were “is not an inhibitor [-]” and “is not a substrate [-]”, respectively. In the case of `CNS(=O)(=O)Cc1ccc2[nH]cc(CCN(C)C)c2c1`, the Activity result in data set [19] is “is not an inhibitor [-]”; in data set [2], “is not a substrate [-]”. For `O=C(CCCN1CCC(O)(c2ccc(Cl)cc2)CC1)c1ccc(F)cc1` [HALOPERIDOL], the inhibition at 100 µM in data set [20] is 37.2%. The Activity entry in [2] is “is not a substrate [-]”.

As to `CCN(CC)CCN1C(=O)CN=C(c2ccccc2F)c2cc(Cl)ccc21` [FLURAZEPAM], in data set [21], the inhibition at 100 µM is 22.6%. Besides, in [2], the Activity entry was “is not a substrate [-]”.

For `COCCCC/C(=N\OCCN)c1ccc(C(F)(F)F)cc1` [FLUVOXAMINE], the inhibition at 100 µM in [22] was 20.8%. Further, the Activity entry in [2] was “is not a substrate [-]”. As for `C#CCN(C)[C@H](C)Cc1ccccc1` [SELEGILINE], the Activity result is “is not an inhibitor [-]” in [23] and “is not a substrate [-]” in data set [2].

In the case of `OC(CCN1CCCCC1)(c1ccccc1)C1CC2C=CC1C2` (stereo not given) [BIPERIDEN], the Activity result in data set [24] is “is not an inhibitor [-]”; in data set [2] it was “is not a substrate [-]”.
